Data on six compounds can be found in BindingDB's records for patent US11896597 (Dizal (Jiangsu) Pharmaceutical, 2024).

Assay [1] has as its target Epidermal growth factor receptor [T790M,L858R] (Homo sapiens, UniProt P00533, L858R/T790M). Description: Potency Assessment EGFR (WT) and EGFR Mutants.
Protocol: (§1) The next day, tested compounds at a series of concentrations were added into each individual well of the plates, and the plates were incubated for 4 h at 37 C. with 5% CO2. […] The assay is an electrochemiluminescent method for determining both phosphorylated and total EGFR of cells with an MSD SECTOR Imager and the ratio of p-EGFR/total EGFR can be generated by the machine. The Her2 (Y1248) phosphorylation level (activity) of cells in each well were measured with MSD Kit named Phospho-ErbB2 (Tyr1248) Assay Whole Cell Lysate Kit according to the manufacturer's instruction (MESO SCALE DISCOVERY, Cat #K151CLD-3). The assay is an electrochemiluminescent method (MESO SCALE DISCOVERY) for determining both phosphorylated and total Her2 of cells with an MSD SECTOR Imager and then the ratio of p-Her2/total Her2 can be generated by the machine.
The target in assay [2] is Epidermal growth factor receptor (Homo sapiens, UniProt P00533). Description: Potency Assessment EGFR (WT) and EGFR Mutants.
Sequence of Epidermal growth factor receptor (P00533 whole entry): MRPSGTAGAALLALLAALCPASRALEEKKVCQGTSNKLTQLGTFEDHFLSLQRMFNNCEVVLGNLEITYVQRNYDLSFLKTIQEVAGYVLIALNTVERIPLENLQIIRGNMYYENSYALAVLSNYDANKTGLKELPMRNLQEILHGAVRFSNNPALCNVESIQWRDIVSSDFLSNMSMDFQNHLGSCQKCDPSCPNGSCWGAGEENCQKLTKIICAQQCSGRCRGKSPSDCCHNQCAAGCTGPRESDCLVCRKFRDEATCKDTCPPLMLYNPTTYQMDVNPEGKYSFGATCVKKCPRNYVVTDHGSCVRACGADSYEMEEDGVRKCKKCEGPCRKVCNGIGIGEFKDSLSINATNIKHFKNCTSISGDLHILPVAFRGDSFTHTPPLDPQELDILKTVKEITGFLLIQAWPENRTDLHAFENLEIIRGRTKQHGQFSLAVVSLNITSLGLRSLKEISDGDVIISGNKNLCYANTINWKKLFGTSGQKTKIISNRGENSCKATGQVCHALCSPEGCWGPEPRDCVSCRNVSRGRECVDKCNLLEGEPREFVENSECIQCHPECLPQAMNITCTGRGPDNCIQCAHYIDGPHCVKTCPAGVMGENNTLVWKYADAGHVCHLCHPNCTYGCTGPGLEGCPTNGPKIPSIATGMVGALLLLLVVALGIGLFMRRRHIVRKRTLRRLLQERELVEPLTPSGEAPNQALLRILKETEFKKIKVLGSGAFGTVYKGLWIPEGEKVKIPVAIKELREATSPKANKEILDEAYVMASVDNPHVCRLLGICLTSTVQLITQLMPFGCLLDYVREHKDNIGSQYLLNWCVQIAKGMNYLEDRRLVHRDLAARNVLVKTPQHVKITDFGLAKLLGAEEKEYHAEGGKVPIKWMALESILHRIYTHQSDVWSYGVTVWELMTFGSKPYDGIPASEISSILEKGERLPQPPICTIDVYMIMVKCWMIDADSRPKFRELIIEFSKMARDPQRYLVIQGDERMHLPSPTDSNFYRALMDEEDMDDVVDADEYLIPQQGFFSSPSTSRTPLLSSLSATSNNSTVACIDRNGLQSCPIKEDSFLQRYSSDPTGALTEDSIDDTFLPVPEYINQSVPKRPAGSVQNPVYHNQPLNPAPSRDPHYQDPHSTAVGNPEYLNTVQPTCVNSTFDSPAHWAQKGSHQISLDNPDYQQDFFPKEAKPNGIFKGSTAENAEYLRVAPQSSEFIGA
Protocol: as §1

Sequence of Epidermal growth factor receptor [T790M,L858R] (P00533 25-1210 T790M/L858R limits assumed): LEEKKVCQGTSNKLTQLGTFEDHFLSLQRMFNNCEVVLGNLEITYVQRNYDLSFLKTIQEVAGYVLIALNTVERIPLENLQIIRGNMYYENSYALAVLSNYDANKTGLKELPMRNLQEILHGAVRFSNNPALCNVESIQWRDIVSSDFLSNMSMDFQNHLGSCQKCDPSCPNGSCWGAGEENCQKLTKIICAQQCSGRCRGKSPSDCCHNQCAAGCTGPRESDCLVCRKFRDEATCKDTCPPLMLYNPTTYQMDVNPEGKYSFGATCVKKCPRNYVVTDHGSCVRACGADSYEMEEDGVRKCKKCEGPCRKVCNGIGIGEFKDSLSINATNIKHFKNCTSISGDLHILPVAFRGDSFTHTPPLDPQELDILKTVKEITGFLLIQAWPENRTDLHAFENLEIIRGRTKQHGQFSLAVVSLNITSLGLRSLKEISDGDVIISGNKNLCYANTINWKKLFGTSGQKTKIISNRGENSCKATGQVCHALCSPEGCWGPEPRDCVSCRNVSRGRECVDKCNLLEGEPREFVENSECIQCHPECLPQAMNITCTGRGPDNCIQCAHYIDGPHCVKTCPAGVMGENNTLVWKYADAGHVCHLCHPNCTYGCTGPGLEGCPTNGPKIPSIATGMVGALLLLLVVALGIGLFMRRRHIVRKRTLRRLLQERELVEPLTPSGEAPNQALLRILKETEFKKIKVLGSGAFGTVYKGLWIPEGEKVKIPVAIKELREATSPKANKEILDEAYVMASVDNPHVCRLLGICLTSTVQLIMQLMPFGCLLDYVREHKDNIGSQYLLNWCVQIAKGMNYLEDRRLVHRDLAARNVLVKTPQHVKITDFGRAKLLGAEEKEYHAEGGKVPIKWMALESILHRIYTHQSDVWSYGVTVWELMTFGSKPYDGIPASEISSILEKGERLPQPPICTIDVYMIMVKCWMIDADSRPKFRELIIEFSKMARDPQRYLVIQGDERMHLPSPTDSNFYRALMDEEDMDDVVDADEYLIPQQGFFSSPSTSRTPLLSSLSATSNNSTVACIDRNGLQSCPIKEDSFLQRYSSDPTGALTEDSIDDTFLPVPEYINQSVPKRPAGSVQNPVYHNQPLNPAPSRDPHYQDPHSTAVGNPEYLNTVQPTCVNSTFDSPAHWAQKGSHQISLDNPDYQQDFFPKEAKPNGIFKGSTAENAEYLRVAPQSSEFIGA

`C=CC(=O)Nc1cc(Nc2ncnc(Nc3cnc(C)cc3C(C)(C)O)n2)c(OC)cc1N(C)CCN(C)C` [US11896597, Compound 6]: the IC50 was determined as 8.4 nM in assay [1] and 103 nM in assay [2].

As for `C=CC(=O)Nc1cc(Nc2ncnc(Nc3ccc(C(F)(F)F)cc3C(C)(C)O)n2)c(OC)cc1N(C)CCN(C)C` [US11896597, Compound 13], the IC50 in assay [1] is 1.1 nM; in assay [2], 20.6 nM.

For the compound `C=CC(=O)Nc1cc(Nc2nccc(Nc3cc(Cl)c(F)cc3C(C)(C)O)n2)c(OC)cc1N(C)C[C@H]1C[C@H](C)CN1C` [US11896597, Compound 90], the IC50 stood at 1.4 nM in assay [1] and 357 nM in assay [2].

As to `C=CC(=O)Nc1cc(Nc2ncnc(Nc3ccc(C)nc3C(C)(C)O)n2)c(OC)cc1N(C)CCN(C)C` [US11896597, Compound 7], the IC50 came out at 1.7 nM in assay [1] and 88.1 nM in assay [2].

As for `C=CC(=O)Nc1cc(Nc2ncnc(Nc3ccccc3C3(O)COC3)n2)c(OC)cc1N(C)CCN(C)C` [US11896597, Compound 10], the IC50 amounted to 2.6 nM in assay [1] and 62.6 nM in assay [2].

As for `C=CC(=O)Nc1cc(Nc2ncnc(Nc3cc(F)c(F)cc3C(C)(C)O)n2)c(OC)cc1N(C)CCN1CCCCC1` [US11896597, Compound 24], the IC50 in assay [1] was 1 nM; in assay [2] it was 104 nM.

By IC50 is commonly meant the concentration needed to halve the response being measured. Higher therefore signals lower potency.
